Assay results from PubChem BioAssay AID270 (DTP/NCI, 2004).
“And” between values parts separate entries of the source, which are not always exact repeats. Equal values may be shown once. Records with an inconclusive call do not appear.

Tested on: BDF1 mice, s.c. Lewis lung carcinoma, T/C %
Test: NCI In Vivo Anticancer Drug Screen. Data for tumor model Lewis Lung Carcinoma (subcutaneous) in B6D2F1 (BDF1) mice
Outline: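 Antitumor effect in vivo is scored from survival or tumor burden, reported as treated relative to vehicle controls.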

## CCCCn1cnc2c(=S)nc(N)[nH]c21
endpoint: mean tumor weight, dose: 1.0 mg/kg/injection, schedule: Q01DX011 (ip), vehicle: other, higher = larger tumour
  T/C: 73 % of control
endpoint: mean tumor weight, dose: 2.0 mg/kg/injection, schedule: Q01DX011 (ip), vehicle: other, higher = larger tumour
  T/C: 59 % of control
endpoint: mean tumor weight, dose: 4.0 mg/kg/injection, schedule: Q01DX011 (ip), vehicle: other, higher = larger tumour
  T/C: 39 % of control
endpoint: mean tumor weight, dose: 8.0 mg/kg/injection, schedule: Q01DX011 (ip), vehicle: other, higher = larger tumour
  T/C: 58 % of control and 63 % of control
endpoint: mean tumor weight, dose: 16.0 mg/kg/injection, schedule: Q01DX011 (ip), vehicle: other, higher = larger tumour
  T/C: 61 % of control
endpoint: mean tumor weight, dose: 32.0 mg/kg/injection, schedule: Q01DX011 (ip), vehicle: other, higher = larger tumour
  T/C: 34 % of control

## CCCNC1=C(N2CC2)C(=O)C(NCCC)=C(N2CC2)C1=O
endpoint: median survival time, dose: 2.5 mg/kg/injection, schedule: Q01DX009 (ip), vehicle: saline, higher = longer survival
  T/C: 102 % of control
endpoint: median survival time, dose: 5.0 mg/kg/injection, schedule: Q01DX009 (ip), vehicle: saline, higher = longer survival
  T/C: 112 % of control
endpoint: median survival time, dose: 10.0 mg/kg/injection, schedule: Q01DX009 (ip), vehicle: saline, higher = longer survival
  T/C: 114 % of control

## CC(=O)[C@H]1CC[C@H]2[C@@H]3CCC4=CC(=O)CC[C@]4(C)[C@H]3CC[C@]12C
endpoint: median survival time, dose: 12.5 mg/kg/injection, schedule: Q02DX009 (ip), vehicle: Klucel (hydroxypropylcellulose) (HPC), higher = longer survival
  T/C: 99 % of control
endpoint: median survival time, dose: 25.0 mg/kg/injection, schedule: Q02DX009 (ip), vehicle: Klucel (hydroxypropylcellulose) (HPC), higher = longer survival
  T/C: 107 % of control
endpoint: median survival time, dose: 50.0 mg/kg/injection, schedule: Q02DX009 (ip), vehicle: Klucel (hydroxypropylcellulose) (HPC), higher = longer survival
  T/C: 90 % of control
endpoint: median survival time, dose: 100.0 mg/kg/injection, schedule: Q02DX009 (ip), vehicle: Klucel (hydroxypropylcellulose) (HPC), higher = longer survival
  T/C: 95 % of control
endpoint: median survival time, dose: 200.0 mg/kg/injection, schedule: Q02DX009 (ip), vehicle: Klucel (hydroxypropylcellulose) (HPC), higher = longer survival
  T/C: 101 % of control
endpoint: median survival time, dose: 400.0 mg/kg/injection, schedule: Q02DX009 (ip), vehicle: Klucel (hydroxypropylcellulose) (HPC), higher = longer survival
  T/C: 96 % of control

## C=CCNc1ccc(C)cc1
endpoint: mean tumor weight, dose: 12.5 mg/kg/injection, schedule: Q01DX011 (ip), vehicle: carboxymethylcellulose (CMC), higher = larger tumour
  T/C: 92 % of control
endpoint: mean tumor weight, dose: 25.0 mg/kg/injection, schedule: Q01DX011 (ip), vehicle: carboxymethylcellulose (CMC), higher = larger tumour
  T/C: 93 % of control
endpoint: mean tumor weight, dose: 50.0 mg/kg/injection, schedule: Q01DX011 (ip), vehicle: carboxymethylcellulose (CMC), higher = larger tumour
  T/C: 37 % of control
endpoint: mean tumor weight, dose: 100.0 mg/kg/injection, schedule: Q01DX011 (ip), vehicle: carboxymethylcellulose (CMC), higher = larger tumour
  T/C: 5 % of control

## CC(=O)OC1CC(OC2C(O)CC(OC3C(O)CC(OC4CCC5(C)C(CCC6C5CCC5(C)C(C7=CC(=O)OC7)CCC65O)C4)OC3C)OC2C)OC(C)C1OC1OC(CO)C(O)C(O)C1O (stereo not drawn)
endpoint: mean tumor weight, dose: 1.2 mg/kg/injection, schedule: Q01DX011 (ip), vehicle: carboxymethylcellulose (CMC), higher = larger tumour
  T/C: 55 % of control
endpoint: mean tumor weight, dose: 2.5 mg/kg/injection, schedule: Q01DX011 (ip), vehicle: carboxymethylcellulose (CMC), higher = larger tumour
  T/C: 60 % of control
endpoint: mean tumor weight, dose: 5.0 mg/kg/injection, schedule: Q01DX011 (ip), vehicle: carboxymethylcellulose (CMC), higher = larger tumour
  T/C: 32 % of control

## COc1cc(C=Nc2ccc(-n3ccnc3C)cc2)ccc1N(CCCl)CCCl
endpoint: median survival time, dose: 2.5 mg/kg/injection, schedule: Q01DX009 (ip), vehicle: Klucel (hydroxypropylcellulose) (HPC), higher = longer survival
  T/C: 116 % of control
endpoint: median survival time, dose: 5.0 mg/kg/injection, schedule: Q01DX009 (ip), vehicle: Klucel (hydroxypropylcellulose) (HPC), higher = longer survival
  T/C: 103 % of control
endpoint: median survival time, dose: 10.0 mg/kg/injection, schedule: Q01DX009 (ip), vehicle: Klucel (hydroxypropylcellulose) (HPC), higher = longer survival
  T/C: 113 % of control

## C=C1C(=O)O[C@H]2[C@H]1[C@H](OC(=O)/C(C)=C\C)CC(=C)[C@@H]1[C@H](O)[C@H]3O[C@@]3(C)[C@@]12O
endpoint: mean tumor weight, dose: 7.5 mg/kg/injection, schedule: Q01DX011 (ip), vehicle: saline, higher = larger tumour
  T/C: 63 % of control
endpoint: mean tumor weight, dose: 15.0 mg/kg/injection, schedule: Q01DX011 (ip), vehicle: saline, higher = larger tumour
  T/C: 70 % of control
endpoint: mean tumor weight, dose: 30.0 mg/kg/injection, schedule: Q01DX011 (ip), vehicle: saline, higher = larger tumour
  T/C: 63 % of control

## OCN(CO)c1nc(N(CO)CO)nc(N(CO)CO)n1
endpoint: median survival time, dose: 6.25 mg/kg/injection, schedule: Q01DX009 (ip), vehicle: saline with Tween-80, higher = longer survival
  T/C: 109 % of control
endpoint: median survival time, dose: 12.5 mg/kg/injection, schedule: Q01DX009 (ip), vehicle: saline with Tween-80, higher = longer survival
  T/C: 107 % of control
endpoint: median survival time, dose: 25.0 mg/kg/injection, schedule: Q01DX009 (ip), vehicle: saline with Tween-80, higher = longer survival
  T/C: 102 % of control

## Cc1cc(NCCCCCCNc2cc(C)nc3ccc(N)cc23)c2cc(N)ccc2n1
endpoint: median tumor weight (est.), dose: 18.75 mg/kg/injection, schedule: Q01DX009 (ip), vehicle: Klucel (hydroxypropylcellulose) (HPC), higher = larger tumour
  T/C: 75 % of control
endpoint: median tumor weight (est.), dose: 37.5 mg/kg/injection, schedule: Q01DX009 (ip), vehicle: Klucel (hydroxypropylcellulose) (HPC), higher = larger tumour
  T/C: 54 % of control
endpoint: median tumor weight (est.), dose: 37.5 mg/kg/injection, schedule: Q01DX009 (oral), vehicle: Klucel (hydroxypropylcellulose) (HPC), higher = larger tumour
  T/C: 90 % of control
endpoint: median tumor weight (est.), dose: 75.0 mg/kg/injection, schedule: Q01DX009 (ip), vehicle: Klucel (hydroxypropylcellulose) (HPC), higher = larger tumour
  T/C: 27 % of control
endpoint: median tumor weight (est.), dose: 75.0 mg/kg/injection, schedule: Q01DX009 (oral), vehicle: Klucel (hydroxypropylcellulose) (HPC), higher = larger tumour
  T/C: 102 % of control
endpoint: median tumor weight (est.), dose: 150.0 mg/kg/injection, schedule: Q01DX009 (oral), vehicle: Klucel (hydroxypropylcellulose) (HPC), higher = larger tumour
  T/C: 102 % of control
endpoint: median tumor weight (est.), dose: 300.0 mg/kg/injection, schedule: Q01DX009 (oral), vehicle: Klucel (hydroxypropylcellulose) (HPC), higher = larger tumour
  T/C: 84 % of control
endpoint: median tumor weight (est.), dose: 600.0 mg/kg/injection, schedule: Q01DX009 (oral), vehicle: Klucel (hydroxypropylcellulose) (HPC), higher = larger tumour
  T/C: 83 % of control

## Nc1nc(=S)c2ncn(C3CC(O)C(CO)O3)c2[nH]1 (stereo not drawn)
endpoint: median survival time, dose: 4.0 mg/kg/injection, schedule: Q01DX009 (ip), vehicle: saline, higher = longer survival
  T/C: 122 % of control
endpoint: median survival time, dose: 8.0 mg/kg/injection, schedule: Q01DX009 (ip), vehicle: saline, higher = longer survival
  T/C: 118 % of control
endpoint: median survival time, dose: 16.0 mg/kg/injection, schedule: Q01DX009 (ip), vehicle: saline, higher = longer survival
  T/C: 108 % of control
endpoint: median survival time, dose: 64.0 mg/kg/injection, schedule: Q01DX009 (ip), vehicle: saline, higher = longer survival
  T/C: 113 % of control

## c1cc[c]([Sn]([S][Sn]([c]2ccccc2)([c]2ccccc2)[c]2ccccc2)([c]2ccccc2)[c]2ccccc2)cc1
endpoint: median survival time, dose: 50.0 mg/kg/injection, schedule: Q01DX009 (ip), vehicle: saline with Tween-80, higher = longer survival
  T/C: 91 % of control
endpoint: median survival time, dose: 100.0 mg/kg/injection, schedule: Q01DX009 (ip), vehicle: saline with Tween-80, higher = longer survival
  T/C: 93 % of control
endpoint: median survival time, dose: 200.0 mg/kg/injection, schedule: Q01DX009 (ip), vehicle: saline with Tween-80, higher = longer survival
  T/C: 102 % of control

## CCOC(=O)C1CCC(NC(=O)N(CCCl)N=O)CC1 (stereo not drawn)
endpoint: median survival time, dose: 8.6 mg/kg/injection, schedule: Q04DX004 (ip), vehicle: gum acacia, higher = longer survival
  T/C: 155 % of control
endpoint: median survival time, dose: 13.0 mg/kg/injection, schedule: Q04DX004 (ip), vehicle: gum acacia, higher = longer survival
  T/C: 155 % of control and 168 % of control and 204 % of control
endpoint: median survival time, dose: 15.0 mg/kg/injection, schedule: Q07DX002 (ip), vehicle: gum acacia, higher = longer survival
  T/C: 413 % of control
endpoint: median survival time, dose: 18.0 mg/kg/injection, schedule: Q04DX004 (ip), vehicle: gum acacia, higher = longer survival
  T/C: 176 % of control and 252 % of control
endpoint: median survival time, dose: 20.0 mg/kg/injection, schedule: Q04DX004 (ip), vehicle: gum acacia, higher = longer survival
  T/C: 181 % of control
endpoint: median survival time, dose: 21.0 mg/kg/injection, schedule: Q07DX002 (ip), vehicle: gum acacia, higher = longer survival
  T/C: 413 % of control
endpoint: median survival time, dose: 22.0 mg/kg/injection, schedule: Q07DX002 (ip), vehicle: gum acacia, higher = longer survival
  T/C: 191 % of control
endpoint: median survival time, dose: 24.0 mg/kg/injection, schedule: Q07DX002 (ip), vehicle: gum acacia, higher = longer survival
  T/C: 232 % of control and 245 % of control
endpoint: median survival time, dose: 28.0 mg/kg/injection, schedule: Q07DX002 (ip), vehicle: gum acacia, higher = longer survival
  T/C: 184 % of control
endpoint: median survival time, dose: 30.0 mg/kg/injection, schedule: Q01DX001 (ip), vehicle: gum acacia, higher = longer survival
  T/C: 157 % of control and 166 % of control and 187 % of control
endpoint: median survival time, dose: 30.0 mg/kg/injection, schedule: Q04DX004 (ip), vehicle: gum acacia, higher = longer survival
  T/C: 70 % of control
endpoint: median survival time, dose: 33.0 mg/kg/injection, schedule: Q07DX002 (ip), vehicle: gum acacia, higher = longer survival
  T/C: 88 % of control and 90 % of control
endpoint: median tumor weight (est.), dose: 15.0 mg/kg/injection, schedule: Q01DX001 (ip), vehicle: gum acacia, higher = larger tumour
  T/C: 16 % of control
endpoint: median tumor weight (est.), dose: 29.0 mg/kg/injection, schedule: Q01DX001 (ip), vehicle: gum acacia, higher = larger tumour
  T/C: 8 % of control

## C=CCn1c(=O)n(CC=C)c(=O)n(CC=C)c1=O
endpoint: mean tumor weight, dose: 15.0 mg/kg/injection, schedule: Q01DX011 (ip), vehicle: carboxymethylcellulose (CMC), higher = larger tumour
  T/C: 82 % of control
endpoint: mean tumor weight, dose: 120.0 mg/kg/injection, schedule: Q01DX011 (ip), vehicle: carboxymethylcellulose (CMC), higher = larger tumour
  T/C: 112 % of control
endpoint: mean tumor weight, dose: 240.0 mg/kg/injection, schedule: Q01DX011 (ip), vehicle: carboxymethylcellulose (CMC), higher = larger tumour
  T/C: 67 % of control

## CS(=O)(=O)OC[C@@H](O)[C@@H](O)COS(C)(=O)=O
endpoint: mean tumor weight, dose: 62.5 mg/kg/injection, schedule: Q01DX011 (ip), vehicle: saline, higher = larger tumour
  T/C: 71 % of control
endpoint: mean tumor weight, dose: 250.0 mg/kg/injection, schedule: Q01DX011 (ip), vehicle: saline, higher = larger tumour
  T/C: 115 % of control
endpoint: mean tumor weight, dose: 500.0 mg/kg/injection, schedule: Q01DX011 (ip), vehicle: saline, higher = larger tumour
  T/C: 94 % of control
endpoint: mean tumor weight, dose: 750.0 mg/kg/injection, schedule: Q01DX011 (ip), vehicle: other, higher = larger tumour
  T/C: 100 % of control
endpoint: mean tumor weight, dose: 1000.0 mg/kg/injection, schedule: Q01DX011 (ip), vehicle: other, higher = larger tumour
  T/C: 98 % of control
